The text below walks through data of patent US10202331B2, “Antifibrinolytic compounds” (THROMBOLYTICS, LLC, priority 2014, dated 2019).

One assay deals with Human Plasminogen (Homo sapiens, UniProt P00747). The assay can be described thus: Coupled in vitro fibrinolytic assay (fibrin clot lysis, absorbance at 405 nm). It is filed as biochemical. As to conditions: for Potency TXA = 100: relative to TXA = 100. The text has this:
The principles and procedures for these assays are as follows. • a) The coupled enzyme reactions in these fibrinolytic assays The assays are constituted of four principal reactions. These are: • (a) The thrombin catalyzed conversion of fibrinogen to the insoluble fibrin clot. Soluble human fibrinogen is a constituent of these assays. The assays are initiated by the addition of human Thrombin, causing the known partial proteolysis of fibrinogen to generate fibrin, which polymerizes to yield an insoluble, opaque “clot”. This is not the same as a fibrin clot obtained physiologically, as it lacks numerous attributes of a physiological clot. […] It is known to bind with a very high affinity to insoluble polymerized fibrin, while it has a much weaker affinity for Fibrinogen. […] All constituents are prepared at appropriate higher stock concentrations from which aliquots are taken and mixed to a final volume of 400 μliters. Included ingredients and their final (assay) concentration are: […] The plates are placed in the plate reader sample compartment maintained at 37°. Assays are conducted with or without pre incubating the fibrinolytic inhibitors with the protein(s) of interest overnight. These two protocols are as follows: • (a) Experiments without pre-incubation: These assays are constituted as follows: […] The assay solutions are mixed & stirred, and the micro titer plate placed in the plate reader. Assays are initiated by delivering a solution (20 μliters) containing Thrombin and either Urokinase or TPA. […] Following pre incubation, the assay solutions are warmed to 37° in the plate reader, and the assays carried out as in (a), above, being initiated with the addition of Thrombin and TPA or Urokinase. The role of Antifibrinolytics in slowing clot dissolution is illustrated in the FIGURE, which illustrates the type of data obtained from the coupled Fribrinolysis Assays described above in Protocols 3(a) and 3(b). […] This represents the formation of fibrin in the assays. […] As a result, an exponential decay in the amount of fibrin present in the assays is observed. This process is illustrated above over a 10 to 30 minute period in control assays, in the absence of antifibrinolytic compounds. As a rough approximation, these can be considered as two sequential exponential processes—the first, formation of fibrin, or the clot, preceding the second—clot breakdown or the fibrinolytic process. A rough measure of the efficacy of fibrinolytic inhibitors, as determined in these coupled assays, is the half-life of the pseudo exponential decline in the optical density of the assay mixtures in the second portion of the reaction. A more rigorous measure of the effectiveness of the compounds to inhibit fibrinolysis, and, by inference, physiological thrombolytic processes, can be obtained by recording the observed fibrinolytic half-lives as a function of the fibrinolytic inhibitor concentration.

Another assay deals with Kringles. The assay can be described thus: Ability to substitute for EACA/TXA in binding to Kringles. The note with it: as determined by the applicant. The text has this: The D-configuration is preferred in the terminal amino acid in order to protect these dipeptides from peptidases.
[1] abbreviates: Compounds Preincubated with Plasminogen and Fibrinogen.
Setting [2] is: Compounds Preincubated with Plasminogen and Fibrinogen, relative to control without inhibitor.
Setting [3] is: No Preincubation, fibrin half life relative to control without inhibitor.

Sequence of Human Plasminogen (P00747 20-810 limits assumed): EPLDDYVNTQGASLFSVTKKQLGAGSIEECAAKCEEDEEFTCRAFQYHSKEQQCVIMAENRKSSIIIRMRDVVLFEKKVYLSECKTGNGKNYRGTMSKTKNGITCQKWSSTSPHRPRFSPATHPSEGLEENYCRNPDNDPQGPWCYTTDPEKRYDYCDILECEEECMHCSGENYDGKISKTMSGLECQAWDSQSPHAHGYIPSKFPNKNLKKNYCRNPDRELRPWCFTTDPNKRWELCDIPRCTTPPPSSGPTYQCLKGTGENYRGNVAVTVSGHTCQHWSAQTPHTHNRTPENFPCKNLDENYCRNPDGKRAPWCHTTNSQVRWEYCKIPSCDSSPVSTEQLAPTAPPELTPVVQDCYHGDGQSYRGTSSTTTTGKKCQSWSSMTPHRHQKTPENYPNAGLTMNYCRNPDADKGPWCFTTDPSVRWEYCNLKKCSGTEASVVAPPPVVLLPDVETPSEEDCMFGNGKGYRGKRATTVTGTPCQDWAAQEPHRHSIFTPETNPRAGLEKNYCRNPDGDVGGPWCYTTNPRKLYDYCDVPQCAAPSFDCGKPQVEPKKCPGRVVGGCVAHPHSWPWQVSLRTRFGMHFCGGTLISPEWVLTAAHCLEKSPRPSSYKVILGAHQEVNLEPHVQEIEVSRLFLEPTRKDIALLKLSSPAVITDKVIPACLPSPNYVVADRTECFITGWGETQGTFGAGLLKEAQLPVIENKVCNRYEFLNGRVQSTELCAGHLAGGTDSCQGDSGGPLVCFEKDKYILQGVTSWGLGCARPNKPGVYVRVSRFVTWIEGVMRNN

As for `NC[C@H]1CC[C@H](C(=O)O)CC1` [TXA, trans-4-(aminomethyl)cyclohexanecarboxylic acid], the “Inhibition Percent” value stood at 69.7% on Human Plasminogen (setting [1]) and 66.6% at Human Plasminogen (No Preincubation). In addition, the “Potency TXA = 100” value at Human Plasminogen (setting [1]) and at Human Plasminogen (No Preincubation) was 100 throughout. For the same compound, the “Percent Of Control” value at Human Plasminogen (setting [2]) is given as 329%; on Human Plasminogen (setting [3]) it was 300%.
With `C[S+](C)CCCCCC(=O)O` [ACA_S, 6-(S,S dimethylthio) Hexanoic acid sultane], the “Inhibition Percent” value on Human Plasminogen (setting [1]) is 88.5%; on Human Plasminogen (No Preincubation) it was 70.0%. For the same compound, the “Potency TXA = 100” value on Human Plasminogen (setting [1]) was 264; on Human Plasminogen (No Preincubation), 111. Besides, the “Percent Of Control” value at Human Plasminogen (setting [2]) was determined as 870%; on Human Plasminogen (setting [3]) it was 333%.
For the compound `C[S+](C)C[C@H]1CC[C@H](C(=O)O)CC1.[Cl-]` [TXA_S, trans-(4-dimethylthiomethyl) Cyclohexane-1-carboxylic acid sulfonium chloride], at Human Plasminogen, the “anti-fibrinolytic effect compared with ACA or TXA (in words)” value is reported as “functions as well as TXA in inhibiting fibrinolysis”. In addition, the “Inhibition Percent” value at Human Plasminogen (setting [1]) amounted to 90.6%; at Human Plasminogen (No Preincubation) it was 71.9%. In addition, the results for the “Potency TXA = 100” value at Human Plasminogen (setting [1]) and on Human Plasminogen (No Preincubation) were 321 and 119, respectively. The “Percent Of Control” value on Human Plasminogen (setting [3]) is 356%.
Consider `Cn1cncc1C[C@H](NC(=O)CCN)C(=O)O` [Anserine], for which the “ability to substitute for EACA/TXA” value with Kringles is on record as “substitute for EACA/TXA”.
For the compound `NCCCCCC(=O)O` [ACA, 6-aminohexanoic acid], the “Inhibition Percent” value on Human Plasminogen (setting [1]) turned out to be 41.8%; at Human Plasminogen (No Preincubation), 37.5%. Besides, the “Potency TXA = 100” value at Human Plasminogen (setting [1]) amounted to 52; at Human Plasminogen (No Preincubation), 53. Besides, the “Percent Of Control” value at Human Plasminogen (setting [2]) is given as 172%; at Human Plasminogen (setting [3]) it was 160%.
On to `NCCC(=O)N[C@@H](Cc1c[nH]cn1)C(=O)O` [Carnosine, β-Alanyl histidine], for which the “ability to substitute for EACA/TXA” value with Kringles is “substitute for EACA/TXA”.
